Measured values from ChEMBL document CHEMBL5537113, “Discovery of 1,2-diaryl-3-oxopyrazolidin-4-carboxamides as a new class of MurA enzyme inhibitors and characterization of their antibacterial activity” (Eur J Med Chem, 2023).
Active and inactive are the calls of the source. The rule behind the calls is not given here.

Experiments:
Escherichia coli = test: Antibacterial activity against Escherichia coli harboring tolC deletion mutant assessed as reduction in microbial growth incubated for 16 hrs by serial dilution method; format: functional
Bacillus subtilis = test: Antibacterial activity against Bacillus subtilis ATCC 6633 assessed as reduction in microbial growth incubated for 16 hrs by serial dilution method; format: functional
Staphylococcus aureus [1] = test: Antibacterial activity against Staphylococcus aureus Newman assessed as reduction in microbial growth incubated for 16 hrs by serial dilution method; format: functional
[2] = target: T1, UDP-N-acetylglucosamine 1-carboxyvinyltransferase (Escherichia coli K-12, UniProt P0A749); test: Inhibition of Escherichia colo K12 His-tagged MurA expressed in Escherichia coli BL21 cells using UNAG as substrate pre incubated for 10 mins followed by substrate addition and measured after 30 mins by microplate reader analysis
[3] = target: T1, UDP-N-acetylglucosamine 1-carboxyvinyltransferase; test: Inhibition of Escherichia coli K12 His-tagged MurA expressed in Escherichia coli BL21 cells using UNAG as substrate pre incubated for 15 mins followed by substrate addition and measured after 15 mins by microplate reader analysis
[4] = test system: UDP-N-acetylglucosamine 1-carboxyvinyltransferase (Escherichia coli K-12), P0A749 [C115D]; test: Inhibition of Escherichia coli MurA C115D mutant using UNAG as substrate pre incubated for 15 mins followed by substrate addition and measured after 15 mins by microplate reader analysis; details: time 30.0 min
Staphylococcus aureus [5] = test: Antibacterial activity against Staphylococcus aureus Newman D2C NCTC 10833 assessed as reduction in microbial growth incubated for 16 hrs by serial dilution method; format: functional
Bacteria = test: Binding affinity to wild type U15-N labelled MurA (unknown origin) expressed in Escherichia coli at 500 uM using UNAG as substrate incubated for 90 to 150 mins by 15N-1H-HSQC NMR analysis; details: time 90-150 min
[6] = target: UDP-N-acetylglucosamine 1-carboxyvinyltransferase (Escherichia coli K-12) (UniProt P0A749); test: Inhibition of Escherichia coli K12 His-tagged MurA expressed in Escherichia coli BL21 cells at 50 uM using UNAG as substrate pre incubated for 15 mins followed by substrate addition and measured after 15 mins by microplate reader analysis relative to control; details: time 30.0 min
[7] = target: UDP-N-acetylglucosamine 1-carboxyvinyltransferase (Escherichia coli K-12, UniProt P0A749, C115D); test: Inhibition of Escherichia coli MurA C115D mutant at 50 uM using UNAG as substrate pre incubated for 15 mins followed by substrate addition and measured after 15 mins by microplate reader analysis relative to control
[8] = Drug uptake in Escherichia coli harboring tolC deletion mutant at 10 uM incubated for 30 mins by LC analysis; format: ADME; details: 0.5 h
[9] = Drug uptake in Escherichia coli harboring tolC deletion mutant assessed per 1.6x10^9 cells at 10 uM incubated for 30 mins by LC analysis; format: ADME; details: 0.5 h
Staphylococcus aureus [10] = test: Antibacterial activity against vancomycin resistant Staphylococcus aureus 10 assessed as reduction in microbial growth by CLSI based broth microdilution method; format: functional
Streptococcus pneumoniae = test: Antibacterial activity against Streptococcus pneumoniae ATCC 700677 assessed as reduction in microbial growth by CLSI based broth microdilution method; format: functional
Clostridioides difficile [11] = test: Antibacterial activity against Clostridioides difficile ATCC BAA1870 assessed as reduction in microbial growth incubated for 48 hrs by broth microdilution method; format: functional
Clostridioides difficile [12] = test: Antibacterial activity against Clostridioides difficile NR-32895 assessed as reduction in microbial growth incubated for 48 hrs by broth microdilution method; format: functional
Clostridioides difficile [13] = test: Antibacterial activity against Clostridioides difficile NR-32889 assessed as reduction in microbial growth incubated for 48 hrs by broth microdilution method; format: functional
Clostridioides difficile [14] = test: Antibacterial activity against Clostridioides difficile NR-32903 assessed as reduction in microbial growth incubated for 48 hrs by broth microdilution method; format: functional
Clostridioides difficile [15] = test: Antibacterial activity against Clostridioides difficile NR-32904 assessed as reduction in microbial growth incubated for 48 hrs by broth microdilution method; format: functional
Clostridioides difficile [16] = test: Antibacterial activity against Clostridioides difficile NR-13427 assessed as reduction in microbial growth incubated for 48 hrs by broth microdilution method; format: functional
Clostridioides difficile [17] = test: Antibacterial activity against Clostridioides difficile NR-13436 assessed as reduction in microbial growth incubated for 48 hrs by broth microdilution method; format: functional
Clostridioides difficile [18] = test: Antibacterial activity against Clostridioides difficile NR-49277 assessed as reduction in microbial growth incubated for 48 hrs by broth microdilution method; format: functional
Clostridioides difficile [19] = test: Antibacterial activity against Clostridioides difficile NR-49278 assessed as reduction in microbial growth incubated for 48 hrs by broth microdilution method; format: functional
Clostridioides difficile [20] = test: Antibacterial activity against Clostridioides difficile NR-49279 assessed as reduction in microbial growth incubated for 48 hrs by broth microdilution method; format: functional
Clostridioides difficile [21] = test: Antibacterial activity against Clostridioides difficile NR-49282 assessed as reduction in microbial growth incubated for 48 hrs by broth microdilution method; format: functional
Clostridioides difficile [22] = test: Antibacterial activity against Clostridioides difficile NR-49283 assessed as reduction in microbial growth incubated for 48 hrs by broth microdilution method; format: functional
Clostridioides difficile [23] = test: Antibacterial activity against Clostridioides difficile NR-49284 assessed as reduction in microbial growth incubated for 48 hrs by broth microdilution method; format: functional
Clostridioides difficile [24] = test: Antibacterial activity against Clostridioides difficile NR-49285 assessed as reduction in microbial growth incubated for 48 hrs by broth microdilution method; format: functional
Clostridioides difficile [25] = test: Antibacterial activity against Clostridioides difficile NR-49286 assessed as reduction in microbial growth incubated for 48 hrs by broth microdilution method; format: functional
Clostridioides difficile [26] = test: Antibacterial activity against Clostridioides difficile NR-49287 assessed as reduction in microbial growth incubated for 48 hrs by broth microdilution method; format: functional
Clostridioides difficile [27] = test: Antibacterial activity against Clostridioides difficile NR-49288 assessed as reduction in microbial growth incubated for 48 hrs by broth microdilution method; format: functional
Clostridioides difficile [28] = test: Antibacterial activity against Clostridioides difficile NR-49291 assessed as reduction in microbial growth incubated for 48 hrs by broth microdilution method; format: functional
Clostridioides difficile [29] = test: Antibacterial activity against Clostridioides difficile NR-49294 assessed as reduction in microbial growth incubated for 48 hrs by broth microdilution method; format: functional
Clostridioides difficile [30] = test: Antibacterial activity against Clostridioides difficile ATCC 43255 assessed as reduction in microbial growth incubated for 48 hrs by broth microdilution method; format: functional
Clostridioides difficile [31] = test: Antibacterial activity against Clostridioides difficile HM-88 assessed as reduction in microbial growth incubated for 48 hrs by broth microdilution method; format: functional
Clostridioides difficile [32] = test: Bactericidal activity against Clostridioides difficile NR-32895 assessed as reduction in microbial growth by broth microdilution method; format: functional
Clostridioides difficile [33] = test: Bactericidal activity against Clostridioides difficile NR-32904 assessed as reduction in microbial growth by broth microdilution method; format: functional
Clostridioides difficile [34] = test: Bactericidal activity against Clostridioides difficile NR-49278 assessed as reduction in microbial growth by broth microdilution method; format: functional
Clostridioides difficile [35] = test: Bactericidal activity against Clostridioides difficile NR-49284 assessed as reduction in microbial growth by broth microdilution method; format: functional
Clostridioides difficile [36] = test: Bactericidal activity against Clostridioides difficile ATCC BAA1870 assessed as reduction in microbial growth by broth microdilution method; format: functional
Clostridioides difficile [37] = test: Bactericidal activity against Clostridioides difficile ATCC 43255 assessed as reduction in microbial growth by broth microdilution method; format: functional
Bacteroides fragilis [38] = test: Antibacterial activity against Bacteroides fragilis HM 20 assessed as reduction in microbial growth incubated for 48 hrs by broth microdilution method; format: functional
Bacteroides fragilis [39] = test: Antibacterial activity against Bacteroides fragilis HM 709 assessed as reduction in microbial growth incubated for 48 hrs by broth microdilution method; format: functional
Bacteroides fragilis [40] = test: Antibacterial activity against Bacteroides fragilis HM 718 assessed as reduction in microbial growth incubated for 48 hrs by broth microdilution method; format: functional
Bacteroides fragilis [41] = test: Antibacterial activity against Bacteroides fragilis HM 719 assessed as reduction in microbial growth incubated for 48 hrs by broth microdilution method; format: functional
Bifidobacterium breve [42] = test: Antibacterial activity against Bifidobacterium breve HM 412 assessed as reduction in microbial growth incubated for 48 hrs by broth microdilution method; format: functional
Bifidobacterium longum = test: Antibacterial activity against Bifidobacterium longum HM 846 assessed as reduction in microbial growth incubated for 48 hrs by broth microdilution method; format: functional
[43] = test system: Bifidobacterium angulatum; test: Antibacterial activity against Bifidobacterium angulatum HM 1189 assessed as reduction in microbial growth incubated for 48 hrs by broth microdilution method; format: functional
Bifidobacterium breve [44] = test: Antibacterial activity against Bifidobacterium breve HM1120 assessed as reduction in microbial growth incubated for 48 hrs by broth microdilution method; format: functional
Lactobacillus gasseri [45] = test: Antibacterial activity against Lactobacillus gasseri HM 403 assessed as reduction in microbial growth incubated for 48 hrs by broth microdilution method; format: functional
Lactobacillus gasseri [46] = test: Antibacterial activity against Lactobacillus gasseri HM 407 assessed as reduction in microbial growth incubated for 48 hrs by broth microdilution method; format: functional
Lactobacillus crispatus [47] = test: Antibacterial activity against Lactobacillus crispatus HM 103 assessed as reduction in microbial growth incubated for 48 hrs by broth microdilution method; format: functional
Lactobacillus crispatus [48] = test: Antibacterial activity against Lactobacillus crispatus HM 420 assessed as reduction in microbial growth incubated for 48 hrs by broth microdilution method; format: functional

T1 sequence (P0A749 whole entry): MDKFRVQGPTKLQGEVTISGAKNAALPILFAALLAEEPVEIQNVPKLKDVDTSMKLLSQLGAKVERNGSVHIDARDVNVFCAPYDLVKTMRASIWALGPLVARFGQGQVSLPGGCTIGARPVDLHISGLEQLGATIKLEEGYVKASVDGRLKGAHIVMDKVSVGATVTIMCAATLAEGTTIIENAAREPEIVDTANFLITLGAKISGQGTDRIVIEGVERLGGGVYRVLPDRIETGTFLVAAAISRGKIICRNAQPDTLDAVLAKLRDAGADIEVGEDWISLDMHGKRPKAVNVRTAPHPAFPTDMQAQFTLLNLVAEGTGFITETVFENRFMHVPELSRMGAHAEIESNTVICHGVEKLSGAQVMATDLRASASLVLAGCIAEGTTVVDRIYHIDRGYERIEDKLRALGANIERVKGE
UDP-N-acetylglucosamine 1-carboxyvinyltransferase (Escherichia coli K-12), P0A749 [C115D], sequence (P0A749 whole entry C115D): as the sequence (P0A749 whole entry) above, with C115D counted along it
UDP-N-acetylglucosamine 1-carboxyvinyltransferase (Escherichia coli K-12), sequence (P0A749 whole entry): as the sequence (P0A749 whole entry) above
UDP-N-acetylglucosamine 1-carboxyvinyltransferase (Escherichia coli K-12, UniProt P0A749, C115D), sequence (P0A749 whole entry C115D): as the sequence (P0A749 whole entry) above, with C115D counted along it

For `O=C1/C(=N\O)CN(c2cccc(Cl)c2)N1c1cccc(Cl)c1`, the MIC (Escherichia coli) was 4 µg/mL, the MIC (Bacillus subtilis) was 10 µg/mL and the MIC (Staphylococcus aureus [1]) was 20 µg/mL. The IC50 [2] was 88.1 µM.

With `C[C@@H]1O[C@@H]1P(=O)(O)O` [FOSFOMYCIN] the MIC (Escherichia coli) was 89 µM, the IC50 [3] was 6.7 µM and the inhibition [4] was “inactive”. The MIC (Staphylococcus aureus [5]) was 17 µM and the Activity (Bacteria) was “Active”.

For `O=C(Nc1ccc(-c2cn[nH]c2)cc1)C1CN(c2cccc(Cl)c2)N(c2cccc(Cl)c2)C1=O` (configuration not stated), the MIC (Escherichia coli) was > 40 µM, the inhibition [6] was 76.5% and the IC50 [3] was 12.2 µM. The inhibition [4] was 77.2%, the IC50 [7] was 12.4 µM and the Drug uptake [8] was 348 nM. The Drug uptake [9] was 11 µM and the MIC (Staphylococcus aureus [5]) was > 40 µM.

`Cc1csc(NC(=O)C2CN(c3cccc(Cl)c3)N(c3cccc(Cl)c3)C2=O)n1` (configuration not stated) showed an MIC (Escherichia coli) of 40 µM, an inhibition [6] of 60.2% and an IC50 [3] of 39.3 µM. For the same compound, the MIC (Staphylococcus aureus [5]) was > 40 µM.

`CN[C@H](CC(C)C)C(=O)N[C@H]1C(=O)N[C@@H](CC(N)=O)C(=O)N[C@H]2C(=O)N[C@H]3C(=O)N[C@H](C(=O)N[C@H](C(=O)O)c4cc(O)cc(O)c4-c4cc3ccc4O)[C@H](O)c3ccc(c(Cl)c3)Oc3cc2cc(c3O[C@@H]2O[C@H](CO)[C@@H](O)[C@H](O)[C@H]2O[C@H]2C[C@](C)(N)[C@H](O)[C@H](C)O2)Oc2ccc(cc2Cl)[C@H]1O` [VANCOMYCIN] gave an MIC (Staphylococcus aureus [10]) of 32 µg/mL, an MIC (Streptococcus pneumoniae) of 2 µg/mL and an MIC (Clostridioides difficile [11]) of 1 µg/mL. The MIC (Clostridioides difficile [12]) was 2 µg/mL, the MIC (Clostridioides difficile [13]) was 2 µg/mL and the MIC (Clostridioides difficile [14]) was 0.5 µg/mL. The MIC (Clostridioides difficile [15]) was 0.5 µg/mL, the MIC (Clostridioides difficile [16]) was 2 µg/mL and the MIC (Clostridioides difficile [17]) was 0.5 µg/mL. The MIC (Clostridioides difficile [18]) was 0.5 µg/mL, the MIC (Clostridioides difficile [19]) was 0.5 µg/mL and the MIC (Clostridioides difficile [20]) was 0.25 µg/mL. For the same compound, the MIC (Clostridioides difficile [21]) was 0.25 µg/mL, the MIC (Clostridioides difficile [22]) was 0.5 µg/mL and the MIC (Clostridioides difficile [23]) was 0.5 µg/mL. For the same compound, the MIC (Clostridioides difficile [24]) was 0.5 µg/mL, the MIC (Clostridioides difficile [25]) was 0.25 µg/mL and the MIC (Clostridioides difficile [26]) was 1 µg/mL. The MIC (Clostridioides difficile [27]) was 0.5 µg/mL, the MIC (Clostridioides difficile [28]) was 0.5 µg/mL and the MIC (Clostridioides difficile [29]) was 0.25 µg/mL. It also gave an MIC (Clostridioides difficile [30]) of 0.5 µg/mL, an MIC (Clostridioides difficile [31]) of 0.5 µg/mL and an MBC (Clostridioides difficile [32]) of 2 µg/mL. For the same compound, the MBC (Clostridioides difficile [33]) was 0.5 µg/mL, the MBC (Clostridioides difficile [34]) was 0.5 µg/mL and the MBC (Clostridioides difficile [35]) was 0.5 µg/mL. For the same compound, the MBC (Clostridioides difficile [36]) was 2 µg/mL, the MBC (Clostridioides difficile [37]) was 1 µg/mL and the MIC (Bacteroides fragilis [38]) was 64 µg/mL. For the same compound, the MIC (Bacteroides fragilis [39]) was 64 µg/mL, the MIC (Bacteroides fragilis [40]) was > 64 µg/mL and the MIC (Bacteroides fragilis [41]) was > 64 µg/mL. The MIC (Bifidobacterium breve [42]) was 1 µg/mL, the MIC (Bifidobacterium longum) was 0.5 µg/mL and the MIC [43] was 1 µg/mL. The MIC (Bifidobacterium breve [44]) was 1 µg/mL, the MIC (Lactobacillus gasseri [45]) was 2 µg/mL and the MIC (Lactobacillus gasseri [46]) was 4 µg/mL. It also gave an MIC (Lactobacillus crispatus [47]) of 1 µg/mL and an MIC (Lactobacillus crispatus [48]) of 1 µg/mL.
